Experimental data: paper PMC6891286, “Towards the Development of an In vivo Chemical Probe for Cyclin G Associated Kinase (GAK)” (Molecules, 2019)

Columns and labels:
Test in all cases: KINOMEscan
Format in all cases: binding
Conditions in all cases: 35 at 1 µM; read-out: % inhibition
[1] = molecular target: T1, EPHA8 (Homo sapiens, UniProt P29322)
T1 construct: purchased Eurofins DiscoverX (KINOMEscan)
Experimental: (§1) KinomeScan Assay on 35 was performed as previously described at EuroFins DiscoverX (Fremont, CA, USA).

[2] = molecular target: T2, BIKE (Homo sapiens, UniProt Q9NSY1)
T2 construct: purchased Eurofins DiscoverX (KINOMEscan)
Experimental: as §1

[3] = molecular target: T3, GSK3A (Homo sapiens, UniProt P49840)
T3 construct: purchased Eurofins DiscoverX (KINOMEscan)
Experimental: as §1

[4] = molecular target: T4, RPS6KA5(Kin.Dom.1-N-terminal) (Homo sapiens, UniProt O75582)
T4 construct: RPS6KA5(Kin.Dom.1-N-terminal); purchased Eurofins DiscoverX (KINOMEscan)
Experimental: as §1

[5] = molecular target: T5, p38-gamma (Homo sapiens, UniProt P53778)
T5 construct: purchased Eurofins DiscoverX (KINOMEscan)
Experimental: as §1

[6] = molecular target: T6, AMPK-alpha1 (Homo sapiens, UniProt Q13131)
T6 construct: purchased Eurofins DiscoverX (KINOMEscan)
Experimental: as §1

[7] = molecular target: T7, LKB1 (Homo sapiens, UniProt Q15831)
T7 construct: purchased Eurofins DiscoverX (KINOMEscan)
Experimental: as §1

[8] = molecular target: T8, YANK3 (Homo sapiens, UniProt Q86UX6)
T8 construct: purchased EuroFins DiscoverX (Fremont, CA, USA)
Experimental: as §1

[9] = molecular target: T9, ACVRL1 (Homo sapiens, UniProt P37023)
T9 construct: purchased Eurofins DiscoverX (KINOMEscan)
Experimental: as §1

[10] = molecular target: T10, FLT3-autoinhibited (Homo sapiens, UniProt P36888)
T10 construct: purchased Eurofins DiscoverX (KINOMEscan)
Experimental: as §1

[11] = molecular target: T11, SRC (Homo sapiens, UniProt P12931)
T11 construct: purchased Eurofins DiscoverX (KINOMEscan)
Experimental: as §1

[12] = molecular target: T12, CSNK1A1 (Homo sapiens, UniProt P48729)
T12 construct: purchased Eurofins DiscoverX (KINOMEscan)
Experimental: as §1

[13] = molecular target: T13, IRAK1 (Homo sapiens, UniProt P51617)
T13 construct: purchased Eurofins DiscoverX (KINOMEscan)
Experimental: as §1

[14] = molecular target: T14, CSNK1E (Homo sapiens, UniProt P49674)
T14 construct: purchased Eurofins DiscoverX (KINOMEscan)
Experimental: as §1

[15] = molecular target: T15, ICK (Homo sapiens, UniProt Q9UPZ9)
T15 construct: purchased Eurofins DiscoverX (KINOMEscan)
Experimental: as §1

[16] = molecular target: T16, CDK3 (Homo sapiens, UniProt Q00526)
T16 construct: purchased Eurofins DiscoverX (KINOMEscan)
Experimental: as §1

[17] = molecular target: T17, PIM3 (Homo sapiens, UniProt Q86V86)
T17 construct: purchased Eurofins DiscoverX (KINOMEscan)
Experimental: as §1

[18] = molecular target: T18, MUSK (Homo sapiens, UniProt O15146)
T18 construct: purchased Eurofins DiscoverX (KINOMEscan)
Experimental: as §1

[19] = molecular target: T19, EGFR(G719C) (Homo sapiens, UniProt P00533, G719C)
T19 construct: purchased Eurofins DiscoverX (KINOMEscan)
Experimental: as §1

[20] = molecular target: T20, FGFR3(G697C) (Homo sapiens, UniProt P22607, G697C)
T20 construct: purchased Eurofins DiscoverX (KINOMEscan)
Experimental: as §1

[21] = molecular target: T21, PIK3CD (Homo sapiens, UniProt O00329)
T21 construct: purchased Eurofins DiscoverX (KINOMEscan)
Experimental: as §1

[22] = molecular target: T22, PLK3 (Homo sapiens, UniProt Q9H4B4)
T22 construct: purchased Eurofins DiscoverX (KINOMEscan)
Experimental: as §1

[23] = molecular target: T23, CAMKK1 (Homo sapiens, UniProt Q8N5S9)
T23 construct: purchased Eurofins DiscoverX (KINOMEscan)
Experimental: as §1

[24] = molecular target: T24, CAMKK2 (Homo sapiens, UniProt Q96RR4)
T24 construct: purchased Eurofins DiscoverX (KINOMEscan)
Experimental: as §1

[25] = molecular target: T25, FLT3(D835V) (Homo sapiens, UniProt P36888, D835V)
T25 construct: purchased Eurofins DiscoverX (KINOMEscan)
Experimental: as §1

[26] = molecular target: T26, EPHB2 (Homo sapiens, UniProt P29323)
T26 construct: purchased Eurofins DiscoverX (KINOMEscan)
Experimental: as §1

[27] = molecular target: T27, EPHB4 (Homo sapiens, UniProt P54760)
T27 construct: purchased Eurofins DiscoverX (KINOMEscan)
Experimental: as §1

[28] = molecular target: T28, RSK2(Kin.Dom.1-N-terminal) (Homo sapiens, UniProt P51812)
T28 construct: RSK2(Kin.Dom.1-N-terminal); purchased Eurofins DiscoverX (KINOMEscan)
Experimental: as §1

[29] = molecular target: T29, FLT3(D835H) (Homo sapiens, UniProt P36888, D835H)
T29 construct: purchased Eurofins DiscoverX (KINOMEscan)
Experimental: as §1

[30] = molecular target: T30, NLK (Homo sapiens, UniProt Q9UBE8)
T30 construct: purchased Eurofins DiscoverX (KINOMEscan)
Experimental: as §1

[31] = molecular target: T31, TYRO3 (Homo sapiens, UniProt Q06418)
T31 construct: purchased Eurofins DiscoverX (KINOMEscan)
Experimental: as §1

[32] = molecular target: T32, CLK4 (Homo sapiens, UniProt Q9HAZ1)
T32 construct: purchased Eurofins DiscoverX (KINOMEscan)
Experimental: as §1

[33] = molecular target: T33, ABL1(T315I)-phosphorylated (Homo sapiens, UniProt P00519, T315I)
T33 construct: purchased Eurofins DiscoverX (KINOMEscan)
Experimental: as §1

[34] = molecular target: T34, PKN1 (Homo sapiens, UniProt Q16512)
T34 construct: purchased Eurofins DiscoverX (KINOMEscan)
Experimental: as §1

[35] = molecular target: T35, CSNK1A1L (Homo sapiens, UniProt Q8N752)
T35 construct: purchased Eurofins DiscoverX (KINOMEscan)
Experimental: as §1

[36] = molecular target: T36, TLK2 (Homo sapiens, UniProt Q86UE8)
T36 construct: purchased Eurofins DiscoverX (KINOMEscan)
Experimental: as §1

[37] = molecular target: T37, FYN (Homo sapiens, UniProt P06241)
T37 construct: purchased Eurofins DiscoverX (KINOMEscan)
Experimental: as §1

[38] = molecular target: T38, EPHA3 (Homo sapiens, UniProt P29320)
T38 construct: purchased Eurofins DiscoverX (KINOMEscan)
Experimental: as §1

[39] = molecular target: T39, ULK1 (Homo sapiens, UniProt O75385)
T39 construct: purchased Eurofins DiscoverX (KINOMEscan)
Experimental: as §1

[40] = molecular target: T40, PAK4 (Homo sapiens, UniProt O96013)
T40 construct: purchased Eurofins DiscoverX (KINOMEscan)
Experimental: as §1

[41] = molecular target: T41, SRPK3 (Homo sapiens, UniProt Q9UPE1)
T41 construct: purchased Eurofins DiscoverX (KINOMEscan)
Experimental: as §1

[42] = molecular target: T42, LTK (Homo sapiens, UniProt P29376)
T42 construct: purchased Eurofins DiscoverX (KINOMEscan)
Experimental: as §1

T14 sequence (P49674 whole entry): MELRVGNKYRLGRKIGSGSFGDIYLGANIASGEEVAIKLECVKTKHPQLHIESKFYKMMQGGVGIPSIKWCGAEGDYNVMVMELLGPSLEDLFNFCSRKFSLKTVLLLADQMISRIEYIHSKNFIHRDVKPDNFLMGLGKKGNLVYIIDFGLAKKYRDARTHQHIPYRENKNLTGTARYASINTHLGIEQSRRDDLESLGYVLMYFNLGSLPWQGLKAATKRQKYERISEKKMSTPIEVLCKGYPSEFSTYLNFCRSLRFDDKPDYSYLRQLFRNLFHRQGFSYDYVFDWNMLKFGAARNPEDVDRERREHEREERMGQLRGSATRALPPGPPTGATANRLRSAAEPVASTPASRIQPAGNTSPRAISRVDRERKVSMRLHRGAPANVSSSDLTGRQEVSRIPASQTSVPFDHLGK
T22 sequence (Q9H4B4 whole entry): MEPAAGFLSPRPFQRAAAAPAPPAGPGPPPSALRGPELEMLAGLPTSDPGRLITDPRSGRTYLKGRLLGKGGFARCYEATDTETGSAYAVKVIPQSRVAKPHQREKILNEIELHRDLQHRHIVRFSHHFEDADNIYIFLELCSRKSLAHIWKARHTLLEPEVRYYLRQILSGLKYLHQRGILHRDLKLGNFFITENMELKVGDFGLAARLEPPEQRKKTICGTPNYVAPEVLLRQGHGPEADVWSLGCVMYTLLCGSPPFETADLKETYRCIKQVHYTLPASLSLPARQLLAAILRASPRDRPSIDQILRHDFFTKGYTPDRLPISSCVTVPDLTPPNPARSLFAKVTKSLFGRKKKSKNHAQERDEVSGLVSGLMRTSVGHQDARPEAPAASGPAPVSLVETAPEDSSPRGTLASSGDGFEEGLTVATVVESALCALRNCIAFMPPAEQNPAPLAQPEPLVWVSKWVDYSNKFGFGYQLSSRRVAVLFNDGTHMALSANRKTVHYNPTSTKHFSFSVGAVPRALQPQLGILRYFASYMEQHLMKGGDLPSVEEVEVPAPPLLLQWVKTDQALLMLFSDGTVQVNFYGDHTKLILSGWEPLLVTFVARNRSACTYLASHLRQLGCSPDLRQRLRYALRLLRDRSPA
T7 sequence (Q15831 whole entry): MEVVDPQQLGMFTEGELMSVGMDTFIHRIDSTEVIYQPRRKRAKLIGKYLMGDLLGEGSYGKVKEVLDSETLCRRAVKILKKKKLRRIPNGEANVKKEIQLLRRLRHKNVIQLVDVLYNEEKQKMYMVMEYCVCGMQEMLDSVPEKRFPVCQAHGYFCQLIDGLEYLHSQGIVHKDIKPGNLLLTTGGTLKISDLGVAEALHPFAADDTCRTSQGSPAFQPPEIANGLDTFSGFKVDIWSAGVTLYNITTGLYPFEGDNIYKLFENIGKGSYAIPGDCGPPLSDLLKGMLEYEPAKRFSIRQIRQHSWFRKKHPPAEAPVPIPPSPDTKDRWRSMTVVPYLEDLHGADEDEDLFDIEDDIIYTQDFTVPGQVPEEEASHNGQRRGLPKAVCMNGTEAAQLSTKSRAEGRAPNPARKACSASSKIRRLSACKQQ
T28 sequence (P51812 68-397 limits assumed): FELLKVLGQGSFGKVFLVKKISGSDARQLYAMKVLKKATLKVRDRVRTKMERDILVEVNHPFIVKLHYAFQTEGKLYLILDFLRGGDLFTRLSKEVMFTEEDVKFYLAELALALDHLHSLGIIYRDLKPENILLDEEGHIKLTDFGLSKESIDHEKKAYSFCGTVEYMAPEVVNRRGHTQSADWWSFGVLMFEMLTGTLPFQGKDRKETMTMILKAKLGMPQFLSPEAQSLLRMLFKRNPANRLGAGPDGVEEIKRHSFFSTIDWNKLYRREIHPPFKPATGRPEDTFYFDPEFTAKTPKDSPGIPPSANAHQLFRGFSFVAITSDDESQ
T30 sequence (Q9UBE8 whole entry): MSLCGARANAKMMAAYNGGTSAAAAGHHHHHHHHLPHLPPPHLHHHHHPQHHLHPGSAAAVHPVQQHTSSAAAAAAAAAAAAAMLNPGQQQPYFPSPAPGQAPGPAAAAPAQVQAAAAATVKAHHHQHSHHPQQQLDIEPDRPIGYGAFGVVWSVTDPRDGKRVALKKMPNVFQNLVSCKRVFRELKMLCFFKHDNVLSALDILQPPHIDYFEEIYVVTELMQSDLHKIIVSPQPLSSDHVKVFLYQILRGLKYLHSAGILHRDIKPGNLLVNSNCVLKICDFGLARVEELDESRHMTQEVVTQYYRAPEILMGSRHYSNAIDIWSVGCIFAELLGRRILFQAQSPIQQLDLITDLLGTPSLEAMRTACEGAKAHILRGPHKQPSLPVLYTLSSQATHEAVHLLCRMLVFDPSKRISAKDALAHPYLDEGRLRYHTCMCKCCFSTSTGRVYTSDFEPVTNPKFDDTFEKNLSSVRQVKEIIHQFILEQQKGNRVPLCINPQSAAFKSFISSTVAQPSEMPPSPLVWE
T21 sequence (O00329 whole entry): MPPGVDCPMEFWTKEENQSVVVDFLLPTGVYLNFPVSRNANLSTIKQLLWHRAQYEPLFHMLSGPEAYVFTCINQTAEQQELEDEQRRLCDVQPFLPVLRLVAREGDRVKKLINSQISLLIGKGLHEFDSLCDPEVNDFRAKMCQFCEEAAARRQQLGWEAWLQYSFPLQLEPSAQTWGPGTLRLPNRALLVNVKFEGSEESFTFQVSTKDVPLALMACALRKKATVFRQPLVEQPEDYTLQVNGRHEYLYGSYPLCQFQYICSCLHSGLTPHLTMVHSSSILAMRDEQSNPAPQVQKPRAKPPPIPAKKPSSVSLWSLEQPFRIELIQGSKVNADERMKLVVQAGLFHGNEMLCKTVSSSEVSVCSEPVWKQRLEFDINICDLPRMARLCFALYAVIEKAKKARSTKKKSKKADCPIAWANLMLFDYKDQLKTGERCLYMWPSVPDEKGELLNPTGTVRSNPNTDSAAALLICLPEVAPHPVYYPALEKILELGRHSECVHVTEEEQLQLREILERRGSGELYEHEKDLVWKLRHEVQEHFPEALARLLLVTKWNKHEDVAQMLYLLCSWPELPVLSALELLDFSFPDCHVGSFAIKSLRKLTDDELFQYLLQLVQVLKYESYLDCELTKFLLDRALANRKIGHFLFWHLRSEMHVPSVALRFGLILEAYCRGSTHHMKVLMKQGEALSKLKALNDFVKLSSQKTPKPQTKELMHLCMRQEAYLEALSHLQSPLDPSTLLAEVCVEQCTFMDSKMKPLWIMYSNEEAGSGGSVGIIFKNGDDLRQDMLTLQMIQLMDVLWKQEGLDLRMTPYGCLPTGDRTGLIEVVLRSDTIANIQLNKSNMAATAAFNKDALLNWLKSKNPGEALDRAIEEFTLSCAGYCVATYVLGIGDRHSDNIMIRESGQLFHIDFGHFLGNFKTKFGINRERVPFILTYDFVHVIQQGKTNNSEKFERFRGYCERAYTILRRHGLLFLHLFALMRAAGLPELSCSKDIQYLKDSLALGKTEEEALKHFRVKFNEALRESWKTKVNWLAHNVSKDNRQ
T15 sequence (Q9UPZ9 whole entry): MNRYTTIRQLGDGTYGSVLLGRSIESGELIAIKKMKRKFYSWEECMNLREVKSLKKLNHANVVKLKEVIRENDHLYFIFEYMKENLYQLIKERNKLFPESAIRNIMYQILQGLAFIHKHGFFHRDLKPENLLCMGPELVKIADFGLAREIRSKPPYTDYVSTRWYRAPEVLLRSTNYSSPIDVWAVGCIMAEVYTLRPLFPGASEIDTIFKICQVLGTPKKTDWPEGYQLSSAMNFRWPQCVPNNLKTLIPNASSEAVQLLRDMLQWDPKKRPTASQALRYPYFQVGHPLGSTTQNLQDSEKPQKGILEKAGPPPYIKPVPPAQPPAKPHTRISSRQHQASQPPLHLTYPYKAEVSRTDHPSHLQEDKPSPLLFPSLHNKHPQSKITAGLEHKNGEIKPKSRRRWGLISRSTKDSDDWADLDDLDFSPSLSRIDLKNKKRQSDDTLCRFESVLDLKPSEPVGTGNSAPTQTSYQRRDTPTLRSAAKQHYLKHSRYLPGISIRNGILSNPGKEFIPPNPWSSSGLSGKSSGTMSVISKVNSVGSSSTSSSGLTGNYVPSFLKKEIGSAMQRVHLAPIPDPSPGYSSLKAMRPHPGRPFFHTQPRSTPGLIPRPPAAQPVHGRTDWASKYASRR
T16 sequence (Q00526 whole entry): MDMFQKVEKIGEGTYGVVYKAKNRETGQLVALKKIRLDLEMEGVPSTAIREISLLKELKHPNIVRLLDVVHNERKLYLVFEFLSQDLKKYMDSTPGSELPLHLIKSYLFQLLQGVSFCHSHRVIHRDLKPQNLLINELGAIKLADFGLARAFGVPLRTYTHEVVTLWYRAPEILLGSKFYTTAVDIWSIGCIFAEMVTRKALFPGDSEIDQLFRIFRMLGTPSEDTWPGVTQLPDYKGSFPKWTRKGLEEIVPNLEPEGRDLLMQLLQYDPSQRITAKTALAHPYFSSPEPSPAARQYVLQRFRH
T37 sequence (P06241 whole entry): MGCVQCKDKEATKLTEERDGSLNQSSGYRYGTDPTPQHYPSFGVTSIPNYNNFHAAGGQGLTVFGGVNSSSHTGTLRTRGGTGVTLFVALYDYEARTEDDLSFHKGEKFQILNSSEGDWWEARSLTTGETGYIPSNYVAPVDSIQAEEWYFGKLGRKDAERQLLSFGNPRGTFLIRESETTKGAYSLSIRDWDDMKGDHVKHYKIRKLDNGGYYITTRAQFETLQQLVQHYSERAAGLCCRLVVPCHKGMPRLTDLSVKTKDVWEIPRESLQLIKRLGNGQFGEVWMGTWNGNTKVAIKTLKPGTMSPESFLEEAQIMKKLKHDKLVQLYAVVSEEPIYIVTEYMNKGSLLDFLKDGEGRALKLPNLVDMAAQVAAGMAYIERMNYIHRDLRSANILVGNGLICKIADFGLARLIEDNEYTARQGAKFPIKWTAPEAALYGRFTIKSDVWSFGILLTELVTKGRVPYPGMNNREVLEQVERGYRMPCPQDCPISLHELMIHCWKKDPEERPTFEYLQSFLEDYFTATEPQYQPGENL

Brc1ccc2nccc(Nc3ccc4cn[nH]c4c3)c2c1 [Compound 35, 6-Bromo-N-(1H-indazol-6-yl)quinolin-4-amine]
activity at 1 µM [1]: 100%
activity at 1 µM [2]: 100%
activity at 1 µM [3]: 100%
activity at 1 µM [4]: 100%
activity at 1 µM [5]: 94%
activity at 1 µM [6]: 100%
activity at 1 µM [7]: 100%
activity at 1 µM [8]: 100%
activity at 1 µM [9]: 100%
activity at 1 µM [10]: 100%
activity at 1 µM [11]: 97%
activity at 1 µM [12]: 62%
activity at 1 µM [13]: 100%
activity at 1 µM [14]: 100%
activity at 1 µM [15]: 100%
activity at 1 µM [16]: 96%
activity at 1 µM [17]: 100%
activity at 1 µM [18]: 100%
activity at 1 µM [19]: 83%
activity at 1 µM [20]: 100%
activity at 1 µM [21]: 100%
activity at 1 µM [22]: 100%
activity at 1 µM [23]: 100%
activity at 1 µM [24]: 100%
activity at 1 µM [25]: 100%
activity at 1 µM [26]: 100%
activity at 1 µM [27]: 100%
activity at 1 µM [28]: 90%
activity at 1 µM [29]: 94%
activity at 1 µM [30]: 100%
activity at 1 µM [31]: 99%
activity at 1 µM [32]: 100%
activity at 1 µM [33]: 95%
activity at 1 µM [34]: 100%
activity at 1 µM [35]: 96%
activity at 1 µM [36]: 100%
activity at 1 µM [37]: 100%
activity at 1 µM [38]: 100%
activity at 1 µM [39]: 91%
activity at 1 µM [40]: 100%
activity at 1 µM [41]: 100%
activity at 1 µM [42]: 100%
